The text below walks through data of patent publication US20080026362A1, “Three-dimensional culture containing human articular chondrocytes with induced terminal differentiation changes, and preparation process and uses of the same” (Kaohsiung Medical University, priority 2006, published 2008).

Holding throughout (assay type): cell-based
The test system of experiment [1] is collagen type II gene. Put plainly: RT-PCR, mRNA expression of collagen type II in alginate-bead human articular chondrocytes (NHAC-kn). Particulars: p<0.01. The method, then:
(§1) The alginate beads were prepared with reference to C. Sanchez et al. (2002), J. Rheumatol, 29:772-82. Briefly, the above-described human articular chondrocyte cultures were suspended in a 1.2% alginate solution in 0.9% NaCl, so as to form a cell suspension at a density of 1×10^6 cells/mL. The cell suspension was then slowly dropped into a 102 mM CaCl2 solution through a yellow pipette tip, to result in the formation of alginate beads entrapping the human articular chondrocytes. The thus-formed alginate beads were allowed to polymerize for further 10 minutes in the CaCl2 solution at room temperature.
(§2) After washing with saline solution, 15 alginate beads were cultivated in 5 ml of culture medium per well in a 6-well plate. […]
(§3) The NHAC-kn cultures were used in the following experiments except the quantitative real-time polymerase chain reaction (quantitative real-time PCR). The KMU-AC cultures were used to quantify mRNA expression by quantitative real-time PCR, which was performed to further confirm the effect of Aza-C on gene expression of human articular chondrocytes.
(§4) On Day 3, 7 and 14 after a 48 hr Aza-C treatment, expressions of the mRNA of type II and type X collagens and alkaline phosphatase (ALP) of Aza-C-treated and non-treated cells (control) were measured by RT-PCR. […]

Experiment [2] relates to human articular chondrocytes. Put plainly: Flow cytometry, cell size of articular chondrocytes. To be noted: Day 14 after 48 hr 15 μg/mL Aza-C, NHAC-kn. How it is done:
(§5) The cultivated alginate beads as described above were treated with 15 μg/mL of 5-azacytidine (Sigma, St Louis, Mo.) for 48 hours. Thereafter, they were maintained in media without Aza-C for another 2 weeks. Cells were harvested on Day 3, 7 and 14 after Aza-C treatment, respectively. The control cultures were cultivated and harvested under the same conditions except that the treatment of Aza-C was omitted.
(§6) Human articular chondrocytes were released from the alginate beads by dissolving the beads in a 0.9% NaCl solution containing 0.05M sodium citrate and 0.03M sodium EDTA at pH 7.4. Cells for each experiment were collected by low-speed centrifugation at 1,000 rpm for 5 min.
as §3
The cell size of articular chondrocytes from the control and Aza-C treated cultures was analysed by flow cytometry on Day 14 after the Aza-C treatment. […] Cells (1×10^6) were then suspended in phosphate buffered saline and analysed immediately on a laser flow cytometer (EPICS Elite; Coulter, Hialeah, Fla.). […]
On the technique in general: A flow cytometer gives signals particle by particle.

In experiment [3] the test system is ALP gene. As to the kind of experiment: Quantitative real-time PCR, mRNA expression of ALP in human articular chondrocytes (KMU-AC). Particulars: normalized to GAPDH, control Day 3 = 100%, mean ± S.E.M. The method, then:
as §1
(§7) After washing with saline solution, 15 alginate beads were cultivated in 5 ml of culture medium per well in a 6-well plate. Culture medium was the Chondrocyte basal medium (Bulletkit, Clonic®; BioWhittaker, Walkersville, Md.) with a supplement of the Chondrocyte growth medium, containing R3-IGF1, bFGF, transferrin, insulin, fetal bovine serum and gentamicin/amphotericin-B (SingleQuots, Clonic®; BioWhittaker, Walkersville, Md.). […]
as §3
(§8) Quantitative real-time PCR was also performed to further confirm the finding from RT-PCR. On Day 3, 7 and 14 after a 48 hr Aza-C treatment, the mRNA expressions of type II and type X collagens and ALP of Aza-C treated and control cells were measured. […]
(§9) The quantitative real-time PCR was performed in an ABI Prism 7900 HT Sequence Detection System (Applied Biosystems, Foster City, Calif.) using the SYBR Green PCR Master Mix Reagent containing the Amplitag Gold DNA polymerase, dNTP mixed with dUTP, SYBR Green 1, passive reference and reaction buffer (Applied Biosystems, Foster City, Calif.). […]
A general note: In qPCR the cycle at which signal appears reflects the starting amount.

In experiment [4] the test system is collagen type X gene. As to the kind of experiment: Quantitative real-time PCR, mRNA expression of collagen type X in human articular chondrocytes (KMU-AC). To be noted: normalized to GAPDH, control Day 3 = 100%, mean ± S.E.M. The method, then: as §1, with “temperature. […]” for “temperature.”
as §3, §8
The thus-obtained PCR products (amplicons) were detected by the fluorescence of SYBR Green, the double stranded DNA binding dye (T. B. Morrison et al. (1998), Biotechniques, 24:954-958, 960, 962). […]

Experiment [5] concerns alkaline phosphatase (ALP) gene. Put plainly: RT-PCR, mRNA expression of alkaline phosphatase in alginate-bead human articular chondrocytes (NHAC-kn). Particulars: p<0.01. How it is done:
as §1, §2, §3, §4

In experiment [6] the test system is collagen type X gene. Put plainly: RT-PCR, mRNA expression of collagen type X in alginate-bead human articular chondrocytes (NHAC-kn). Particulars: p<0.01. The method, then:
as §1
After washing with saline solution, 15 alginate beads were cultivated in 5 ml of culture medium per well in a 6-well plate. Culture medium was the Chondrocyte basal medium (Bulletkit, Clonic®; BioWhittaker, Walkersville, Md.) with a supplement of the Chondrocyte growth medium, containing R3-IGF1, bFGF, transferrin, insulin, fetal bovine serum and gentamicin/amphotericin-B (SingleQuots, Clonic®; BioWhittaker, Walkersville, Md.). The alginate beads were cultured for 7 days at 37° C. in a humidified incubator with 5% CO2 and the culture medium was changed every 3 days. […]
as §3, §4
The thus-obtained PCR products (amplicons) were resolved by electrophoresis on a 1.4% agarose gel and visualised by ethidium bromide staining. The optical densities of the resolved bands were semi-quantified using a Bioimaging System (UVP Inc., Upland, Calif.). […] The optical intensity ratios of the PCR products to the 18S rRNA gene were calculated for comparison.

Experiment [7] concerns collagen type II gene. Put plainly: Quantitative real-time PCR, mRNA expression of collagen type II in human articular chondrocytes (KMU-AC). Particulars: normalized to GAPDH, control Day 3 = 100%, mean ± S.E.M. The method, then:
as §1, §7, §3, §8, §9

Experiment [8] deals with human articular chondrocytes. Put plainly: TUNEL assay, apoptotic rate of chondrocytes. To be noted: Day 14 after 48 hr 15 μg/mL Aza-C; NHAC-kn; p<0.01. How it is done: as §5, §6, §3
Fragmented DNA of an apoptotic cell was TUNEL stained using an In Situ Cell Death Detection Kit, TMR red (Roche, Germany). […] Slides were observed on a fluorescence microscope with an excitation wavelengthof 580 nm for rhodamine and 365 nm for DAPI. […] Stained cells were counted in 5 microscopic fields for each slide. […]

[9] abbreviates: Day 7 after 48 hr treatment with 15 μg/ml Aza-C.
The mark [10] stands for this setting: Day 14 after 48 hr treatment with 15 μg/ml Aza-C.
Setting [11] is: Day 3 after 48 hr 15 μg/mL Aza-C.
Where [12] appears, read: Day 7 after 48 hr 15 μg/mL Aza-C.
Setting [13] is: Day 14 after 48 hr 15 μg/mL Aza-C.

Molecules are shown by their SMILES.

As to `Nc1ncn([C@@H]2O[C@H](CO)[C@@H](O)[C@H]2O)c(=O)n1` [Aza-C, 5-azacytidine], the “mRNA expression of collagen type II gene (RT-PCR, normalized to 18S rRNA) vs control group” value in experiment [1] (setting [9]) and in experiment [1] (setting [10]) was “significantly decreased” throughout. For the same molecule, the “increase of cell size as compared to the control cultures” value in experiment [2] is given as 26%. The “cell size of articular chondrocytes (relative intensity in forward scatter)” value in experiment [2] (mean ± SEM, control cultures 404.41±1.45, p<0.01) stood at 509.20±1.93. The “Percentage change of mRNA expression of ALP by quantitative real-time PCR” value in experiment [3] (setting [11]) is given as 175.8 ± 13.5%; in experiment [3] (setting [12]) it was 31,900.0 ± 4.7 %; in experiment [3] (setting [13]), 735.6 ± 3.2 %. Moreover, the “Percentage change of mRNA expression of collagen type X by quantitative real-time PCR” value in experiment [4] (setting [11]) was found to be 398.0 ± 26.3 %; in experiment [4] (setting [13]), 335.0 ± 1.4 %. Also, the “mRNA expression of ALP gene (RT-PCR, normalized to 18S rRNA) vs control group” value in experiment [5] (setting [9]) and in experiment [5] (setting [10]) was “significantly increased” in each case. For the same molecule, the “mRNA expression of collagen type X gene (RT-PCR, normalized to 18S rRNA) vs control group” value in experiment [6] (Day 3 after 48 hr treatment with 15 μg/ml Aza-C), in experiment [6] (setting [9]) and in experiment [6] (setting [10]) was “significantly increased” throughout. The “Percentage change of mRNA expression of collagen type II by quantitative real-time PCR” value came to 7.3 ± 1.2 % in experiment [7] (setting [11]), 1.0 ± 0.4 % in experiment [7] (setting [12]) and 3.0 ± 0.9 % in experiment [7] (setting [13]). For the same molecule, the “apoptotic rate of articular chondrocytes (TUNEL stained / DAPI stained cells) vs control cultures” value in experiment [8] is “significantly increased”.
